Publication PMC5980259, “GI‐530159, a novel, selective, mechanosensitive two‐pore‐domain potassium (K2P) channel opener, reduces rat dorsal root ganglion neuron excitability” (British Journal of Pharmacology, 2017)

Key:
hTRAAK = biological target: T1, hTRAAK (Homo sapiens, UniProt Q9NYG8); test: Whole-cell patch clamp, transiently transfected tsA-201 cells, TRAAK; format: cell-based; settings: Supporting Information Figure S2
T1 construct: expressed in transfected cells; host or cells: tsA-201, transient, pcDNA3.1 vector
T1 sequence (Q9NYG8 1-393): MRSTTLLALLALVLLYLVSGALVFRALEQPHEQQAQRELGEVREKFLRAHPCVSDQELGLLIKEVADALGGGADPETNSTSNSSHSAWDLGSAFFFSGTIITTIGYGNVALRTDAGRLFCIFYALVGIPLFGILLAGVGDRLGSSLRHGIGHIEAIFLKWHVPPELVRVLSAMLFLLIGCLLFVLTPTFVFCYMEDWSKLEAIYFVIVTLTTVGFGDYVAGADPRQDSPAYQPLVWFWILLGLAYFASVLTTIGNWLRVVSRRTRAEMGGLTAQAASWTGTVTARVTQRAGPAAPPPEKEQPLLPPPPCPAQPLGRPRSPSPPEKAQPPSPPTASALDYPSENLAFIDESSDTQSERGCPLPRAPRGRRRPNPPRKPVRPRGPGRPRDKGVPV
Method: Recordings of hTREK1, hTREK1∆N, hTREK2, hTRAAK and […] currents from transiently transfected tsA‐201 cells were performed using methods as described in Veale and Mathie (2016). Briefly, the pcDNA3.1 vector was cloned with the gene of interest, and these vectors and a similar vector containing GFP were incorporated into the tsA201 cells (0.5 μg per well) using the calcium phosphate method. The cells were incubated for 6–12 h at 37°C in […] and 5% carbon dioxide. Cells were then washed using a PBS solution and used for experiments after 24 h.
Currents were recorded using whole‐cell patch‐clamp using an Axopatch 1D amplifier. Cells were placed in a recording chamber filled with an external medium composed of 145 mM, NaCl, 2.5 mM KCl, 3 mM MgCl2, 1 mM CaCl2 and 10 mM HEPES (pH to 7.4, using NaOH). The internal medium used in the glass pipette comprised 150 mM KCl, 3 mM MgCl2, 5 mM (or 0.1 mM) EGTA and 10 mM HEPES (pH to 7.4, using KOH). GI‐530159 was applied by bath perfusion. Currents were recorded and analysed using pCLAMP 10.2 software Microsoft Excel. The voltage protocol used for recording current through K2P channels was as previously described (Veale and Mathie, 2016). For analysis, we measured the current difference between the −80 and −40 mV steps.

BK (KCa1.1) = BK (KCa1.1) (Homo sapiens, UniProt Q12791); test: BL-1249 selectivity (manual patch-clamp and flux assay platforms), BK; format: cell-based; settings: 10 μM
Kv7.2 (KCNQ2) = Kv7.2 (KCNQ2) (Homo sapiens, UniProt O43526); test: BL-1249 selectivity (manual patch-clamp and flux assay platforms), Kv7.2; format: cell-based; settings: 10 μM
Kv7.3(KCNQ3) = Kv7.3(KCNQ3) (Homo sapiens, UniProt O43525); test: BL-1249 selectivity (manual patch-clamp and flux assay platforms), Kv7.3; format: cell-based; settings: 10 μM
NaV1.7 = NaV1.7 (Homo sapiens, UniProt Q15858); test: BL-1249 selectivity (manual patch-clamp and flux assay platforms), NaV1.7; format: cell-based; settings: 10 μM
[1] = tested on: Na current in DRG neurons; test: Voltage-clamp recordings from DRG neurons, Na current; format: cell-based, rat
Method: Acutely dissociated rat DRG cells were obtained according to a previously described protocol (Passmore, 2005). All animal care and experimental procedures complied with guidelines and were approved by the Pfizer Neusentis Institutional Animal Use and Care Committee. Animal studies are reported in compliance with the ARRIVE guidelines (Kilkenny et al., 2010; McGrath and Lilley, 2015).Cells were plated on coated coverslips (poly‐D‐lysine/laminin, BD Biosciences, San Jose, CA, USA) prior to patching on the same day. Cells were perfused with an extracellular solution containing (in mM): 135 NaCl, 4.7 KCl, 1 CaCl2, 1 MgCl2, 10 HEPES and 10 glucose, pH 7.4, with NaOH (310 mOsmol·L^−1). Pipette solution contained (in mM): 130 KCl, 1 MgCl2, 5 MgATP, 10 HEPES and 5 EGTA, pH adjusted to 7.3 with KOH (290 mOsmol·L^−1). For whole‐cell recordings, currents were filtered at 2 kHz and sampled at 5 kHz. Series resistance was compensated for by up to 80%. For current‐clamp recordings, action potential firing and resting membrane potential (RMP) were recorded from small cells ([…]). GI‐530159 was dissolved in 0.3% DMSO as 10 mM stock and applied in the vicinity of cells using a gravity fed perfusion system (MSC‐200, Bio‐Logic SAS, Claix, France).

TREK1 = tested on: TREK1; parameters: method as in Cao et al., 2010; settings: ref Cao et al., 2010; read-out: EC50 in electrophysiological experiments; cited from earlier work
TASK3 (K2P9.1) = TASK3 (K2P9.1) (Homo sapiens, UniProt Q9NPC2); parameters: method as in Cao et al., 2010; settings: ref Cao et al., 2010; cited from earlier work
hTREK1 = biological target: T2, hTREK1 (Homo sapiens, UniProt O95069); test: Manual whole-cell patch clamp, HEK293 cells stably expressing TREK1; format: cell-based; parameters: expressed in transfected cells; settings: 100 μM; n = 7
T2 sequence (O95069 1-426): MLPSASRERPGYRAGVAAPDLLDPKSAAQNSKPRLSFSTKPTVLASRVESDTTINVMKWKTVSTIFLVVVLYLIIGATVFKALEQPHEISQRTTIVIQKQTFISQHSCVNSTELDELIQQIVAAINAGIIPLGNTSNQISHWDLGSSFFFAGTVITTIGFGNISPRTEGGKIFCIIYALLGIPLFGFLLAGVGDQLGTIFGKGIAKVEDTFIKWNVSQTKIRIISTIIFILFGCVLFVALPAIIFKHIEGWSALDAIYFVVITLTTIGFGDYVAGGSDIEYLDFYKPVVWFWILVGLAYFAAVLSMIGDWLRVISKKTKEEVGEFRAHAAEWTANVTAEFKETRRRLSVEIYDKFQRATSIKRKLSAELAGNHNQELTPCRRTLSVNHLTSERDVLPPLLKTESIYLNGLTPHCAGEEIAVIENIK
Method: Electrophysiological studies were performed on CHO or HEK293 cells, stably expressing human recombinant TREK1; tsA‐201 cells transiently transfected with human recombinant K2P channels and acutely dissociated rat DRG cells, all at room temperature (22–24°C).
Studies were performed using a conventional patch clamp and Multiclamp 700B and pCLAMP software (Molecular Devices, Sunnyvale, CA, USA). For conventional manual patch clamp, glass coverslips containing HEK293 cells were perfused with an extracellular solution (ECS) containing (in mM): 135 NaCl, 4.7 KCl, 1 CaCl2, 1 MgCl2, 10 HEPES and 10 glucose, pH 7.4, with NaOH (310 mOsmol·L^−1). The patch pipette was filled with (in mM): 130 KCl, 1 MgCl2, 5 MgATP, 10 HEPES and 10 BAPTA, pH adjusted to 7.3 with KOH (290 mOsmol·L^−1).

Chain of NaV1.7 (Q15858 whole entry): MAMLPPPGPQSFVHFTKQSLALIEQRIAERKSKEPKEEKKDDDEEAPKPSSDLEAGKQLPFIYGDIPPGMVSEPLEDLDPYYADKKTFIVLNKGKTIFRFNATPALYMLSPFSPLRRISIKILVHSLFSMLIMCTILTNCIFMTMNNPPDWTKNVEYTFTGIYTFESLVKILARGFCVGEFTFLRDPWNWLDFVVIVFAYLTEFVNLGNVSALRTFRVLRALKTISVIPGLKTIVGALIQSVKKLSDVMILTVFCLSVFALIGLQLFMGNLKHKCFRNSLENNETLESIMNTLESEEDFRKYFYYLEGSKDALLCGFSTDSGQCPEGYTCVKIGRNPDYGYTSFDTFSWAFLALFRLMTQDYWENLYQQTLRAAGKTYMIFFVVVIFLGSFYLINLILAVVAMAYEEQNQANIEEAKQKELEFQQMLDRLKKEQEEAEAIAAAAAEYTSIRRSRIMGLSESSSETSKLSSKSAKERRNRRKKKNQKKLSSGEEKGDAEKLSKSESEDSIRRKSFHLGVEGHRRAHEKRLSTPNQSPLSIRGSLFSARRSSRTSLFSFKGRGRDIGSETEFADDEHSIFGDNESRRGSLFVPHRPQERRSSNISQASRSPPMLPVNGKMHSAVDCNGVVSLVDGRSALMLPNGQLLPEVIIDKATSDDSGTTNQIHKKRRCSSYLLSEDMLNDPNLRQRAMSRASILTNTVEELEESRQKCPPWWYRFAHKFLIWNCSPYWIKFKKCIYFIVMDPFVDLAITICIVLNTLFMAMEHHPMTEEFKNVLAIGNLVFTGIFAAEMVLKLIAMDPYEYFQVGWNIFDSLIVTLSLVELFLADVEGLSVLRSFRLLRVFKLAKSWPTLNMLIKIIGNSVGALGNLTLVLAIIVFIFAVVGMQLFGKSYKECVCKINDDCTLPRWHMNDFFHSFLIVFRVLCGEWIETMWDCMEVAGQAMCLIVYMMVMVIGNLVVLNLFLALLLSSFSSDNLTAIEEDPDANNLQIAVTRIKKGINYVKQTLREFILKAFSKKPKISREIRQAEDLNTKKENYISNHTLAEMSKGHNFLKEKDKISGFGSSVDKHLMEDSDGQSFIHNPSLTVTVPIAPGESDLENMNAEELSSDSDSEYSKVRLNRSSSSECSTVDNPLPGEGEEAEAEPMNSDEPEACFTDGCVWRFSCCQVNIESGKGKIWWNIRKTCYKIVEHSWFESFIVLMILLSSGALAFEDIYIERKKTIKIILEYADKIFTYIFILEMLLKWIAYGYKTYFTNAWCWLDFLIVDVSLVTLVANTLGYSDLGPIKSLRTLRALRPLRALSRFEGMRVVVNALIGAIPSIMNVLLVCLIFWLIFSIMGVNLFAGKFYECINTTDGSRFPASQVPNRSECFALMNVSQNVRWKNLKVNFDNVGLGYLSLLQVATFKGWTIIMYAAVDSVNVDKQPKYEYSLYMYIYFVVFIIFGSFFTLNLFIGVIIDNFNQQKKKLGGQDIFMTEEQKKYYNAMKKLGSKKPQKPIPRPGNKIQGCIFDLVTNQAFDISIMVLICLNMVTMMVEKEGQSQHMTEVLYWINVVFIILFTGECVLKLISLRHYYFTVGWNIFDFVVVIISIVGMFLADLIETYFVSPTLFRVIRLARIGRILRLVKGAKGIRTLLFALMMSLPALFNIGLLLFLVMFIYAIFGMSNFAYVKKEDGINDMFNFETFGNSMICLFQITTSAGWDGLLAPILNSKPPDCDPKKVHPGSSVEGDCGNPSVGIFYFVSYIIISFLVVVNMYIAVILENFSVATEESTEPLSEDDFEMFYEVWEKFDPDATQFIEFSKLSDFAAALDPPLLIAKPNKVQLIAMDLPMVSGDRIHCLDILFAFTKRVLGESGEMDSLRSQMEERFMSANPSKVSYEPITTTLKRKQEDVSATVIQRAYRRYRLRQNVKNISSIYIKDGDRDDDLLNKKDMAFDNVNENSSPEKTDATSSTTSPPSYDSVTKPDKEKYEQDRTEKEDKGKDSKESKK
Chain of BK (KCa1.1) (Q12791 whole entry, species assumed): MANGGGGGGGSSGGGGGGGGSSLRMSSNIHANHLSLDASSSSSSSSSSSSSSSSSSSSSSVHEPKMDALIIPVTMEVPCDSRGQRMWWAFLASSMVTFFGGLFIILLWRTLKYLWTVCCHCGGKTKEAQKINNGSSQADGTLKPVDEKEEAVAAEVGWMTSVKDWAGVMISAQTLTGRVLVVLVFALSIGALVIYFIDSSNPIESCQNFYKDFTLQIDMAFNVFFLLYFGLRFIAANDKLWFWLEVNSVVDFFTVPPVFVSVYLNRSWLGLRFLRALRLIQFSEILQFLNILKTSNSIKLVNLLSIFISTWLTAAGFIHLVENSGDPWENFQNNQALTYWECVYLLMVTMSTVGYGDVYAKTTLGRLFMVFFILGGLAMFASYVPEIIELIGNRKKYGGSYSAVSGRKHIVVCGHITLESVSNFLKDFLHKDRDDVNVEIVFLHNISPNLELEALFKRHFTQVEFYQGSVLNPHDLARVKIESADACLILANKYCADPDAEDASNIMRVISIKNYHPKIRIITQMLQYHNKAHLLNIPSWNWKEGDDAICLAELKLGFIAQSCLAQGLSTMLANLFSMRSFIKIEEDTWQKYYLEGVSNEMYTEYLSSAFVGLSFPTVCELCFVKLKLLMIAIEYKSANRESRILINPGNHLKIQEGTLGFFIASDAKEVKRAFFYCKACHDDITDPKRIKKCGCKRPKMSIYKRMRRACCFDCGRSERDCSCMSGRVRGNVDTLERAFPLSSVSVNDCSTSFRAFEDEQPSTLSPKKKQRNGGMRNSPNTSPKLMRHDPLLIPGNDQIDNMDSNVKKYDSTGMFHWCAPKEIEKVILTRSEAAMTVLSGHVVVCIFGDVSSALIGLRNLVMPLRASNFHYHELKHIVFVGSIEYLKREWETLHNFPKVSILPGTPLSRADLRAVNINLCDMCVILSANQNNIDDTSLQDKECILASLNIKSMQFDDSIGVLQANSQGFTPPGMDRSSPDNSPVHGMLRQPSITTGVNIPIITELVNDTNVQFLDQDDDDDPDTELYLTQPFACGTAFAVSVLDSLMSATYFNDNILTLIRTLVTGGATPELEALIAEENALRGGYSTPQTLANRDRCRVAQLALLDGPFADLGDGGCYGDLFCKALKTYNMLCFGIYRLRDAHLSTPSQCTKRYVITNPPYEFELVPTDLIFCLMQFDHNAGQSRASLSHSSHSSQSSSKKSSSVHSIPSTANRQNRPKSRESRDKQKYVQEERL
Chain of TASK3 (K2P9.1) (Q9NPC2 whole entry, species assumed): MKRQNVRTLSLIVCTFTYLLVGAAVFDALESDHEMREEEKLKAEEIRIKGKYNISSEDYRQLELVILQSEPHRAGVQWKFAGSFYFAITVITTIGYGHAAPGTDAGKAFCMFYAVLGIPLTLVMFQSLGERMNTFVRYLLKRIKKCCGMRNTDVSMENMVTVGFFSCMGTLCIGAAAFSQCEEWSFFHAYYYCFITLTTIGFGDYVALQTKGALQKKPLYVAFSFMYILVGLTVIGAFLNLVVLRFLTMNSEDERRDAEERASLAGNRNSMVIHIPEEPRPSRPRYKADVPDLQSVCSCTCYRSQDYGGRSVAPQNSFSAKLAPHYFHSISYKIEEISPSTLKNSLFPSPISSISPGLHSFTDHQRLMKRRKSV

effect on TRAAK channels (hTRAAK): clear enhancement | effect on BK (KCa1.1) (BK (KCa1.1)): significant inhibition | effect on Kv7.2 (KCNQ2) (Kv7.2 (KCNQ2)): significant inhibition | effect on Kv7.3 (KCNQ3) (Kv7.3(KCNQ3)): significant inhibition | effect on NaV1.7 (NaV1.7): significant inhibition | maximal enhanced current (hTREK1): 7.2 ± 1.3 nA
Structure (SMILES): c1ccc(-c2nnn[nH]2)c(Nc2cccc3c2CCCC3)c1 [BL‐1249, (5,6,7,8‐tetrahydro‐naphthalen‐1‐yl)‐[2‐(1H‐tetrazol‐5‐yl)‐phenyl]‐amine]
block of Na current in DRG neurons [1]: clear block | EC50 (TREK1): ~1000 nM | effect on TASK3 (K2P9.1) channels (TASK3 (K2P9.1)): strong activator
